We go through 2 molecules from article PMC5958064, “Single cell analysis of kynurenine and System L amino acid transport in T cells” (Nature Communications, 2018).

Series [1] deals with T1, System L transporter SLC7A5 (Mus musculus, UniProt Q9Z127).
T1 construct: endogenous in cells
Put plainly: Radiolabelled 3H-kynurenine uptake in T cells. The series is classed as cell-based. The protocol: To activate primary T cells, spleens and/or lymph nodes (LN) were removed, disaggregated and red blood cells lysed. Cells were stimulated with 1 μg/ml of the CD3 monoclonal antibody (2C11) and 2 μg/ml anti-CD28 (37.51; ebiosciences) to trigger the TCR. Naive CD4^+ T cells and 24 h TCR-activated CD4^+ T cells were purified using CD4 isolation kit (EasySep, STEMCELL Technologies). […] Proleukin, Novartis) for a further 3-5 days. To generate TH1s and TH17s, murine CD8^+ T cells were depleted from lymph node preparations using CD8 depletion kit (EasySep, STEMCELL Technologies). […] RnD Systems) and IL-2 (20 ng/ml) and for TH17s; cytokines IL-6 (50 ng/ml, Peprotech), IL-1β (10 ng/ml, Peprotech) and TGFβ (2 ng/ml, Peprotech). TH17s were cultured in IMDM (Gibco). All other cells were cultured in RPMI 1640 containing L-glutamine (Gibco). Culture media was supplemented with 10% FBS (Gibco), 50 μM β-mercaptoethanol (β-ME, Sigma) and penicillin/streptomycin (Gibco). Cells were incubated at 37 °C with 5% CO2 throughout. […] Cells were pelleted below the oil, the aqueous supernatant solution, followed by the silicon oil/dibutyl phthalate mixture was aspirated, and the cell pellet underneath resuspended in 200 μl NaOH (0.5 M) and β-radioactivity measured by liquid scintillation counting in a Beckman LS 6500 Multi-Purpose Scintillation Counter (Beckman Coulter). […] Where indicated, the sodium free buffer was prepared using TMACl as described in Baird et al.[35] Data are expressed as molecules radiotracer per cell per minute. […] All other chemicals were obtained from Sigma.

In series [2] the target is T1, System L transporter SLC7A5. Put plainly: Flow cytometry kynurenine uptake assay (450 nm fluorescence) in T cells. To be noted: for IC50: 37 °C. The series is classed as cell-based. From the text: For cell surface staining, antibodies conjugated to FITC, PE, APC, Alexafluor 647 (A647), APC-efluor780 (APCe780), and PerCPCy5.5 were obtained from either BD Pharmingen, eBioscience or Biolegend. Fc receptors were blocked using Fc Block (BD Pharmingen). Antibody clones used were: CD4 (RM4-5), CD8a (53-6.7), TCRβ (H57-597), CD44 (IM7), CD45.1 (A20), CD45.2 (104) and CD98 (RC388). Cells were fixed using 1% paraformaldehyde. Standard intracellular cytokine staining protocols were followed for IFNγ (clone XMG1.2; Biolegend) staining. Data were acquired on a LSR Fortessa II with DIVA software or a FACSVerse flow cytometer with FACSuite software (BD Biosciences) and analysed using FlowJo software version 9.9.5 (TreeStar).
Start with at least 1 × 10^6 cells per condition, to obtain at least 200,000 events analysed by flow cytometry at the end of the protocol. […] If required, surface cell antibody staining should be performed prior to uptake assay protocol. This may be performed at room temperature or 4 °C, however test samples must be warmed to 37 °C, e.g. in water bath, prior to kynurenine uptake. (As with all multi-parameter flow cytometry, appropriate antibody staining controls must also be performed.) Samples can be fixed immediately after uptake assay by addition of 4% (vol/vol) paraformaldehyde (PFA; to a final concentration of 1%) for 30 min at room temperature.
For kynurenine uptake assay; pre-warm kynurenine (800 μM, in HBSS), BCH (40 mM, in HBSS) and lysine (20 mM, HBSS) and HBSS to 37 °C. After surface antibody staining of samples, resuspend cells in 200 μl warmed HBSS (1–5 × 10^6 cells in FACS tubes, or scale accordingly into plates). Keep cells in water bath at 37 °C. Add 100 μl of HBSS, or BCH or lysine to appropriate samples. Add 100 μl HBSS to no kynurenine controls (final volume 400 μl). Finally, add 100 μl kynurenine to appropriate samples. Stop uptake after 4 min by adding 125 μl 4% PFA for 30 min at room temperature, in the dark. The final concentrations for uptake assay are: 200 μM kynurenine; +/-10 mM BCH; +/-5 mM lysine. After fixation, wash cells twice in PBS/0.5% BSA and resuspend in PBS/0.5% BSA prior to acquisition on flow cytometer. The 405 nm laser and 450/50 BP filter are used for kynurenine fluorescence detection.
To monitor kynurenine uptake in live cells, acquire data on flow cytometer immediately following addition of kynurenine and plot fluorescence against time.
In general terms: A flow cytometer gives signals particle by particle.

In series [3] the test system is D3 TH17cond CD4+ T cells. Put plainly: FICZ uptake by flow cytometry (530 nm emission). The class given is cell-based, mouse. As to conditions: FICZ 300 nM, 4 min, BCH 10 mM.
Source text: Error bars are ±s.d. Individual points indicate biological replicates. MFIs are indicated in the histograms, data are from three biological replicates (a–g, i–j) and six (Kyn) or three biological replicates (FICZ) (h).
As a control, we used the AHR ligand 6-formylindolo[3,2-b]carbazole (FICZ), a tryptophan-derived photoproduct. The intrinsic fluorescence of FICZ has previously been used to monitor cellular accumulation of FICZ by flow cytometry using BP filter for 530/30 nm emission with 488 nm laser excitation[27]. […] Further evidence for the importance of System L transport for kynurenine action came from experiments using BCH treatment to inhibit System L transport.
For series [4], the system named is AHR. Put plainly: Cyp1a1 mRNA induction in TH17cond CD4+ T cells (qPCR). The class given is cell-based, mouse. As for the experimental part: To activate primary T cells, spleens and/or lymph nodes (LN) were removed, disaggregated and red blood cells lysed. Cells were stimulated with 1 μg/ml of the CD3 monoclonal antibody (2C11) and 2 μg/ml anti-CD28 (37.51; ebiosciences) to trigger the TCR. Naive CD4^+ T cells and 24 h TCR-activated CD4^+ T cells were purified using CD4 isolation kit (EasySep, STEMCELL Technologies). […] Proleukin, Novartis) for a further 3–5 days. To generate TH1s and TH17s, murine CD8^+ T cells were depleted from lymph node preparations using CD8 depletion kit (EasySep, STEMCELL Technologies). […] RnD Systems) and IL-2 (20 ng/ml) and for TH17s; cytokines IL-6 (50 ng/ml, Peprotech), IL-1β (10 ng/ml, Peprotech) and TGFβ (2 ng/ml, Peprotech). TH17s were cultured in IMDM (Gibco). All other cells were cultured in RPMI 1640 containing L-glutamine (Gibco). Culture media was supplemented with 10% FBS (Gibco), 50 μM β-mercaptoethanol (β-ME, Sigma) and penicillin/streptomycin (Gibco). Cells were incubated at 37 °C with 5% CO2 throughout. […] RNA was purified using the RNeasy RNA purification Mini Kit (Qiagen) (Genomic DNA was digested with RNase-free DNase (Qiagen) following manufacturer instructions) and reverse-transcribed using the iScript cDNA synthesis kit (BioRad). Quantitative PCR was performed in 96-well plate format using iQ SYBR Green-based detection (BioRad) on a BioRad iCycler.
Background: Real-time PCR tracks product formation cycle by cycle.

Series [5] deals with AHR. More on the design: method as in PMID 29279331. To be noted: COS-1 cells; read-out: EC50 for AHR activation; cited from earlier work.
Setting [6] is: summary over CTL, TH1 and 24 h TCR-stimulated T cells.

Like-named read-outs stand apart in the source and are kept apart here.

T1 sequence (Q9Z127 whole entry): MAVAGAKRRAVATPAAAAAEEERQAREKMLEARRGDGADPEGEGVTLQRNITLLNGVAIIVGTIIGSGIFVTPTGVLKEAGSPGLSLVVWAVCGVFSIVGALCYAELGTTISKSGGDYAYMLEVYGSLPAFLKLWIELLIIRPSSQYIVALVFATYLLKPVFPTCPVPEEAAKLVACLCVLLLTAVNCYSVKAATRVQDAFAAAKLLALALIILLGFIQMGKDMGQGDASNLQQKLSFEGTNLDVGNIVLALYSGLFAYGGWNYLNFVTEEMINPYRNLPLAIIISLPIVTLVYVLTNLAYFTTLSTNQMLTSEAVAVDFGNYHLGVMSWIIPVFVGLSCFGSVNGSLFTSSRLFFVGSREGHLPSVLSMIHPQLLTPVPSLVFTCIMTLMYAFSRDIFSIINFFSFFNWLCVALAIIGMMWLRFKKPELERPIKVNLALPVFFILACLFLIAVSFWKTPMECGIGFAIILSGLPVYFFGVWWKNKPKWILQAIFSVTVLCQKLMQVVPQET
T1 sequence (P10852 whole entry partner): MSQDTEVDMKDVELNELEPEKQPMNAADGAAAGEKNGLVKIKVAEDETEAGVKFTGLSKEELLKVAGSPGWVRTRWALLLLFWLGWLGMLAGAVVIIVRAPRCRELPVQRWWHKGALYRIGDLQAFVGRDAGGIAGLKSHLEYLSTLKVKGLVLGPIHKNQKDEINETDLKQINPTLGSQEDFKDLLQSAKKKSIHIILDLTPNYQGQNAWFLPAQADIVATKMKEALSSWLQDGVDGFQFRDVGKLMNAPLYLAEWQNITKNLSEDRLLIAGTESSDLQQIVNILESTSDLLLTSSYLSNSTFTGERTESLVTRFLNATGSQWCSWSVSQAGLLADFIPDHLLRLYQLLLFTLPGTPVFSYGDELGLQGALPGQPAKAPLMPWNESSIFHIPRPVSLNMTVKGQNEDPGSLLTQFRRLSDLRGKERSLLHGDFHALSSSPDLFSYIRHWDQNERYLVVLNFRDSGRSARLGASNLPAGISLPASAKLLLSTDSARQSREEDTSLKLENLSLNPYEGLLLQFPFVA

Turning to `NC1(C(=O)O)CC2CCC1C2` (stereo not shown) [BCH, 2-amino-2-norbornanecarboxylic acid], the “Percentage of kynurenine uptake blocked by BCH, 3H-Kyn” value is reported as 79.1 ± 11.3% in series [1] (24 h CD3/CD28 stimulated T cells (TCR), 4 min uptake); 92.5 ± 0.9% in series [1] (CTL, 4 min uptake); 90.2 ± 2.1% in series [1] (TH1, 4 min uptake). In series [1] (TH1 cells and CTLs, BCH 5 mM), the “effect on 3H-kynurenine transport” value was “inhibited”. Also, the “radiolabelled kynurenine uptake blocked” value in series [1] (setting [6]) is recorded as 80–90%. Further, the “Percentage of kynurenine uptake blocked by BCH, Kyn MFI” value in series [2] (24 h CD3/CD28 stimulated T cells (TCR), 450 nm fluorescence emission) amounted to 77.1 ± 14.7%; in series [2] (CTL, 450 nm fluorescence emission), 78.3 ± 4.5%; in series [2] (TH1, 450 nm fluorescence emission), 81.0 ± 9.0%. Besides, the “effect on kynurenine uptake” value in series [2] (CD3/CD28 activated wild-type T cells in co-culture, 5 mM lysine, BCH) is “BCH treatment did”. Moreover, the IC50 in series [2] (CTL, 4 min) was determined as 492 ± 45 µM; in series [2] (D7 rLM CD8+ effector T cells from spleen, ex vivo, 4 min), 161 ± 34 µM. Also, the “effect on kynurenine transport ex vivo” value in series [2] (D7 rLM-infected CD8+ T cells, BCH 10 mM, Leu 5 mM, Lys 5 mM) is on record as “blocked”. Moreover, the “effect on kynurenine transport (450 nm fluorescence)” value in series [2] (TCR-stimulated CD8+ T cells or CTLs, 4 min, BCH 10 mM, Leu 5 mM, Lys 5 mM) is “prevented”. Moreover, in series [2] (setting [6]), the “kynurenine transport blocked as measured by flow cytometry” value is 80%. The “effect on FICZ uptake” value in series [3] is “not affected”. For the same molecule, the “effect on FICZ-induced Cyp1a1 mRNA” value in series [4] (D3 TH17cond CD4+ T cells, FICZ 300 nM 2 h, BCH 25 mM) is “does not block FICZ mediated Cyp1a1 mRNA induction”. Besides, in series [4] (D3 TH17cond CD4+ T cells, kynurenine 100 μM 2 h, BCH 25 mM), the “effect on kynurenine-induced Cyp1a1 mRNA” value is given as “impedes Cyp1a1 mRNA induction in response to kynurenine”.
`Nc1ccccc1C(=O)CC(N)C(=O)O` (stereo not shown) [kynurenine]: the Km in series [1] (CTLs, rounded value in Discussion, read-out: Km of kynurenine transport in CTLs) was around 200 µM; in series [1] (IL-2 maintained CTLs, radiolabelled kynurenine transport assay, read-out: Km for the initial rate of kynurenine transport), 213 µM; in series [2] (IL-2 maintained CTLs, flow cytometry assay (MFI), read-out: Km for the initial rate of kynurenine transport), 267 µM. Moreover, the “sodium dependence of uptake” value in series [1] (TCR-activated CD4+ T cells, TH1s and CTLs, Na+ containing vs Na+-free buffer) is reported as “sodium independent”. For the same molecule, the “temperature dependence of kynurenine-mediated increase in MFI” value in series [2] (CTLs, 4 min, 37 °C vs 4 °C) is recorded as “temperature sensitive”. Further, the EC50 in series [4] (D3 TH17cond CD4+ T cells, 2 h, read-out: EC50 to drive Cyp1A1 mRNA expression) is 11.1 µM; in series [5], 13 µM. Besides, in series [4] (TH17cond CD4+ T cells, kynurenine 100 μM or FICZ 300 nM, 2 h), the “Cyp1a1 mRNA induction, D3 versus D5 post activation” value was “strikingly higher on day 3 post activation compared to day 5 cells”.

One may read the IC50 as the midpoint of a concentration-inhibition curve. A low value points to higher potency. By Km is commonly meant the concentration of substrate that gives half-maximal velocity. The EC50 is the concentration needed to bring the measured effect to its halfway point.
